row,Structure (SMILES),logP
1,O=NN(CCF)C(=O)NC1CCC(NC(=O)N(CCF)N=O)CC1 (stereo not given),1.34
2,CCCCCCCCCCCCCCCCCC[n+]1ccccc1.[I-],3.68
3,O=S(=O)(Nc1ccc(I)cc1)C(F)(F)F,4.39
4,O=C1CC2OCCC3CN4CCC56c7ccccc7N1C5C2C3CC46 (stereo not given),1.62
5,FC(F)(F)c1nc2ncccc2[nH]1,1.38
6,CCOC(=O)c1ccc2ncccc2c1,2.64
7,O=[N+]([O-])c1cc[n+]([O-])c2c([N+](=O)[O-])cccc12,0.76
8,COc1ccc(C(N)=O)cc1N=NN(C)C,0.44
9,CSc1ccc(NS(=O)(=O)C(F)(F)F)cc1,3.74
10,CCOP(=O)(OCC)Oc1ccc(SC)c(C)c1,3.28
11,Cc1ccccc1-c1nc(N)nc(N)n1,1.26
12,O=[N+]([O-])c1nccn1CCS(=O)(=O)c1ccccc1,0.52
13,Nc1nc(N)nc(-c2cc(F)ccc2Cl)n1,1.38
14,C[N+](C)(C)Cc1cccc([N+](=O)[O-])c1.[Br-],-2.66
15,COc1cc(-n2nc(C)cc2OC)nc(OC)n1,1.86
16,CCOC(=O)C(=Cc1cccc(OC)c1)C(=O)OCC,3.18
17,COc1ccc(Cc2cnc(N)nc2N)cc1OC,0.97
18,CCOP(=S)(OCC)Oc1ccc(SC)c(Cl)c1,5.06
19,COc1cc(Cc2cnc(N)nc2N)ccc1SC,1.92
20,N#CCNc1ccccc1C(=O)O,1.8
21,CCOCC(O)Cn1ccnc1[N+](=O)[O-] (stereo not given),0.04
22,CCCCCCCCCCOn1c(=O)[nH]c(C)c(Br)c1=O,4.65
23,CC1=C(C(=O)O)SCCO1,0.04
24,OCC(CO)(CO)CBr,-0.7
25,COc1cc(Cc2cnc(N)nc2N)cc(OC)c1OCC#N,0.72

row,Structure (SMILES),logP
1,CN(C)C(=O)c1cnc2ccccc2c1,0.99
2,O=C1NC(=O)C(=Cc2ccc([N+](=O)[O-])o2)S1,0.63
3,O=S1(=O)NC(c2ccco2)=Nc2ccccc21,1.06
4,Brc1n[nH]c(Br)n1,2.24
5,CNP(=O)(OC)Oc1ccc([N+](=O)[O-])cc1 (stereo not given),1.27
6,CCC1(CC)OC(=O)c2ccccc21,2.69
7,CNC(=O)Oc1ccc(C(C)(C)C)c(C)c1,3.38
8,CC12CC3(C)CC(C)(C1)CC(N)(C2)C3,4.01
9,COc1cccc(C2=NCC(=O)Nc3ccc(Cl)cc32)c1,3.14
10,COc1cc(OC)cc(OC(=O)CNC(=O)c2ccccc2)c1,2.69
11,CCCCCC[n+]1ccccc1.[Br-],-2.03
12,CCCCCCCCCCCCCC[n+]1ccc(C)cc1C.[I-],2.47
13,CC(C)(C)CC1=Nc2ccc(Cl)cc2S(=O)(=O)N1,2.71
14,Oc1cc(Cl)c(NC2=NCCN2)c(Cl)c1,1.52
15,CC(=O)OCCN1CCS/C1=N/c1ncc([N+](=O)[O-])s1,1.88
16,C[N+](C)(C)Cc1cccnc1.[Br-],-3.5
17,O=C1NC(=S)SC1=CC=Cc1ccc([N+](=O)[O-])o1,0.93
18,CN(C)C(=O)Cc1ccsc1,0.65
19,COc1cc(Cc2cnc(N)nc2N)cc(OC)c1OCc1ccccc1,2.46
20,COCCOc1c(OC)cc(Cc2cnc(N)nc2N)cc1OC,0.56
21,O=C(COc1ccc(Cl)cc1)NNCc1ccccc1,2.92
22,CC(C)=CC1C(C(=O)OCc2ccc(C#N)cc2)C1(C)C (stereo not given),4.91
23,CCC1=Nc2cc(Cl)ccc2S(=O)(=O)N1,1.61
24,CCN(CC)CCNC(=O)c1cc(F)cc(Cl)c1OC,3.18
25,CCOP(N)(=O)SCC (stereo not given),0.15

row,Structure (SMILES),logP
1,CCCCCCCCCCCCCC[n+]1cc(C)cc(C)c1.[I-],2.9
2,NNC(=O)NC1CCCCC1,0.15
3,CCOCCn1ccnc1[N+](=O)[O-],0.53
4,Nc1nc(N)nc(-c2cccc(Br)c2)n1,2.44
5,CCOc1ccccc1OC(=O)NC,1.24
6,CON(C)C(=O)Nc1ccc(C(C)C)cc1,2.95
7,O=[N+]([O-])c1cnc(N=C2OCCN2CCO)s1,0.43
8,CC(=O)NCCn1c([N+](=O)[O-])cnc1C,-0.47
9,CCC(=O)OCC(=O)[C@@]1(O)[C@@H](C)C[C@H]2[C@@H]3CCC4=CC(=O)C=C[C@]4(C)[C@@]3(F)[C@@H](O)C[C@@]21C,3.06
10,Nc1nc(N)nc(-c2ccc(Cl)cc2Br)n1,2.09
11,NS(=O)(=O)c1ccc2c(c1)S(=O)(=O)NC(Cc1ccccc1)N2 (stereo not given),1.03
12,COc1cc(-n2c(=O)cc(C)n2C)ncn1,0.3
13,CN(C)c1ccc(N(C)C)nn1,0.99
14,COCc1c(OC)cc(Cc2cnc(N)nc2N)cc1OC,1.19
15,O=C1CN=C(c2ccccc2F)c2cc(Cl)c(Cl)cc2N1,3.63
16,CC(C)Oc1ccccc1OC(=O)N(C)C,2.06
17,O=C1CN=C(c2ccccc2Br)c2cc(Br)ccc2N1,3.3
18,O=C(NO)Nc1ccc(Cl)cc1,1.39
19,CC(C)NC(=O)C=Cc1ncc([N+](=O)[O-])s1,1.76
20,CS(=O)(=O)c1cccc(NS(=O)(=O)C(F)(F)F)c1,1.85
21,CC(=O)NC1=C(Nc2ccccc2)C(=O)c2ccccc2C1=O,1.73
22,CCc1ccc2c(c1)C(c1ccccc1F)=NCC(=O)N2,2.92
23,COc1ccccc1C(=O)NCCCN,0.2
24,COC(=O)C(C#N)=NNc1cc(C(F)(F)F)cc(C(F)(F)F)c1,5.02
25,CN1C(=O)OC(c2ccccc2)C1=O (stereo not given),1.06

row,Structure (SMILES),logP
1,CC1=Nc2c([N+](=O)[O-])cc(Cl)cc2S(=O)(=O)N1,0.85
2,Cn1nnnc1Sc1ccccc1,1.63
3,CN(C)C(=O)Nc1ccc(Br)cc1,2.19
4,CN(C)N=Nc1cccc([N+](=O)[O-])c1,2.75
5,FC1C(Cl)C(Cl)C(Cl)C(Cl)C1Cl (stereo not given),3.19
6,COc1cc(Cc2cnc(N)nc2N)ccc1OCc1ccccc1,2.66
7,Cc1ccc(OC(=O)CNC(=O)c2ccccc2)cc1,2.83
8,ClC1C(Cl)C(Cl)C(Br)C(Br)C1Cl (stereo not given),3.88
9,CSC1=NCCN1c1ncc([N+](=O)[O-])s1,1.78
10,CCC(CC)(OC)C(=O)NC(N)=O,0.96
11,CCCOn1c(=O)c(Br)c(C)n(C)c1=O,0.72
12,CSc1nnc(CCC(C)C)c(=O)n1N,1.85
13,CCN(C)c1nc(N(C)CC)nc(N(C)CC)n1,3.9
14,CC(=O)Nc1ccc(OC(=O)CBr)cc1,1.08
15,CC(C)Oc1cn[nH]c1,1.13
16,C=C(Br)CC1(C(C)CC)C(=O)NC(=O)N(C)C1=O (stereo not given),2.43
17,c1ccc(-c2ncnc3ccccc23)cc1,2.71
18,CNc1ccc(S(N)(=O)=O)cc1,0.08
19,COc1cccc(Cc2cnc(N)nc2N)c1,1.54
20,O=[N+]([O-])c1cc(Cl)c(N=C2NCCN2)c(Cl)c1,2.1
21,COc1cc(Cc2cnc(N)nc2N)cc(OC)c1C(=O)OC(C)C,1.72
22,CCCN(CC)CC(F)(F)F,2.38
23,O=[N+]([O-])c1nccn1CC(O)COc1ccccc1 (stereo not given),1.43
24,O=[N+]([O-])c1cccc(OC2OC(CO)C(O)C(O)C2O)c1 (stereo not given),-0.51
25,CN(C)C(=O)Cc1ccco1,0.01

row,Structure (SMILES),logP
1,CNC(=NC#N)NC,-0.4
2,N#Cc1cc[n+]([O-])cc1,-0.94
3,Cc1nnc(C)s1,0.03
4,O=C1CN=C(c2ccccc2)c2ccccc2N1,2.18
5,NC1CC2CCC1c1ccccc12 (stereo not given),2.29
6,CCCCCCCCCCCCCCCC[n+]1ccc(C)cc1C.[I-],3.9
7,O=C(O)Cc1ccc(S(=O)(=O)F)cc1,1.86
8,[Br-].c1ccc(C[n+]2cccc3ccccc32)cc1,-0.82
9,CC(=O)Nc1n[nH]c(NC(C)=O)n1,-1.02
10,CSC1=NC(=O)C(=Cc2ccc([N+](=O)[O-])o2)S1,1.41
11,CCN1CCN=C1Nc1ncc([N+](=O)[O-])s1,2.28
12,CCCCC(C)n1nnc2ccccc21 (stereo not given),3.44
13,O=C1CN=C(c2ccccc2)c2cc([N+](=O)[O-])ccc2N1CC(O)CO (stereo not given),0.96
14,COc1cc(Cl)c(NC2=NCCN2)c(Cl)c1,1.6
15,O=[N+]([O-])c1ccc(C=Cc2nccc(Cl)n2)o1,1.31
16,Clc1cccc(Cl)c1-c1ccccc1,4.98
17,CC(C)C1OC(=O)c2ccccc21 (stereo not given),2.1
18,COc1cc(C)nc(-n2nc(C)cc2OC)n1,1.26
19,O=NN(CCF)C(=O)NC1CCSCC1,1.43
20,COc1cc(OC)nc(-n2[nH]c(=O)cc2C)n1,1.16
21,O=[N+]([O-])c1ccc(/C=C/c2nnc[nH]2)o1,1.1
22,CCOP(=S)(OCC)SCS(=O)CC (stereo not given),1.78
23,COc1ccc2c(c1)N=C(C)NS2(=O)=O,0.56
24,CC1=Nc2ccc(C)cc2S(=O)(=O)N1,0.81
25,COn1c(=O)[nH]c(C)c(Br)c1=O,-0.3

row,Structure (SMILES),logP
1,NC(=O)CCCCn1nnc2ccccc21,0.58
2,Clc1ccccc1-c1ccccc1Cl,4.97
3,CCc1ccc(N=NN(C)C(C)=O)cc1,3.36
4,O=C1CN=C(c2ccc(Br)cc2)c2cc(Br)ccc2N1,4.04
5,Cc1ccccc1C(=N)c1ccccc1C,3.31
6,CC(C)Sc1nnc(C(C)C)c(=O)n1N,2.06
7,Cc1[nH]c(=O)n(O)c(=O)c1Br,-1.12
8,CC(=O)Nc1cc(OCC(=O)O)ccc1Cl,0.75
9,O=S1(=O)N=CNc2ccc(Cl)cc21,1.07
10,CCCCCCN(SN(C)C(=O)ON=C(C)SC)C(=O)c1ccccc1,4.2
11,COc1nc(C)cc(-n2[nH]c(C)cc2=O)n1,1.03
12,ClC1=C(Cl)C(Cl)C(Cl)C(Cl)C1Cl (stereo not given),4.31
13,CNN=CCCc1ccccc1,1
14,NN=C1c2ccccc2C(=O)C1C(=O)C(c1ccccc1)c1ccccc1 (stereo not given),3.62
15,O=S1(=O)N=C(Cc2ccccc2)Nc2ccccc21,1.89
16,COP(=O)(OC)Oc1ccc([N+](=O)[O-])c(C)c1,1.69
17,O=S(=O)(Nc1cccc(Cl)c1)C(F)(F)F,4
18,COc1ncnc2ccccc12,1.97
19,O=S(=O)(Nc1cccc(F)c1)C(F)(F)F,3.42
20,CCCCCCNC(=O)NN,0.46
21,Nc1ncc(Cc2cc(Cl)c(Cl)cc2Cl)c(N)n1,3.79
22,CNP(=O)(OC)Oc1cccc(C(C)(C)C)c1 (stereo not given),2.65
23,COc1cc(Cc2cnc(N)nc2N)cc(OC)n1,1.64
24,OCC1C(Cl)C(Cl)C(Cl)C(Cl)C1Cl (stereo not given),2.94
25,NS(=O)(=O)c1nc2ccc(O)cc2s1,1.13

# From the OPERA property sets (Mansouri et al. 2018)
